Data: US10111933B2, “Use of growth hormone fragments” (Metabolic Pharmaceuticals Pty Ltd, priority 2011, dated 2018)
Entries after “also recorded” stand apart in the source; their conditions may differ. Ends that are not written are not given here.

Assays:
IGF-1 = conditions: effective dose, clinical trials; cited from earlier work
[1] = system: osteoblast and osteoclast formation; conditions: cited from earlier work
[2] = system: Cartilage explants (native cartilage); assay: Native cartilage explant culture; type: cell-based, calf
Protocol: Cartilage explants were taken from calf metacarpal-carpal joints and placed in culture in Ham's F-12 supplemented with 20% fetal bovine serum (FBS) in the presence and absence of AOD9604 (SEQ ID NO: 1) (10 or 100 μg/ml) for 1 week or (100 or 500 μg/ml) for 2 weeks.
(§1) The tissue was harvested and water content and dry weight measured. The tissue was then digested with papain (Sigma, 40 μg/ml) for 48 h at 65° C. DNA content was determined using the Hoechst 33258 dye binding assay (Polysciences) and fluorometry (excitation 365 nm, emission 458 nm). Proteoglycan content was determined by measuring the amount of sulphated glycosaminoglycans using the dimethylmethylene blue dye binding assay and spectrophotometry (525 nm). Collagen content was determined by measuring the hydroxyproline content of an aliquot of the papain digest hydrolyzed in 6N HCl for 18 h at 110° C. The hydroxyproline content was determined using the chloramine-T/Ehrlich's reagent assay and spectrophotometry (560 nm). The cellularity was quantified by measuring the DNA content using Hoescht 33258 dye binding assay (Polysciences) and fluorometry (excitation 365 nm, emission 458 nm.
(§2) All experiments were done three times and each condition was done in triplicate. The data was expressed as mean±SD. […]. Significance was determined using two way ANOVA followed by Tukey's post hoc test when multiple groups were being evaluated. T test was utilized if 2 groups were being compared. Significance was assigned at p values <0.05.

1.5 cm tear on soleus = assay: Case study: calf muscle (soleus) tear; type: in vivo, human; conditions: transdermal 600 mcg per dose twice daily, total 20 ml
Description: The subject was a professional footballer. The athlete incurred at 1.5 cm tear on their soleus near the adjacent aponeurosis to the gastrocnemius. […] A 1.5 cm tear is considered a moderately large tear for the region. […] The fibre tears were directional with the orientation of the fibres. The length of the tear was 1.5 cm.
The subject undertook an intervention of AOD9604 (SEQ ID NO: 1) at 600 mcg per dose. He applied one ml twice daily. The transdermal application was at 600 mcg per ml. The total application was 20 ml.

[3] = system: tear to the long head of bicep femoris; assay: Case study: hamstring muscle tear; type: in vivo, human; conditions: transdermal 600 mcg per dose twice daily, total 40 ml
Description: The subject was a professional footballer. The athlete incurred at 2.0 cm tear to the long head of their bicep femoris. […] Some fibre disruption was noted below the tendon junction coming from the insertion. The length of the tear was 1.5 cm. The fusiform belly region around the injury was highly inflamed.
The subject undertook an intervention of AOD9604 (SEQ ID NO: 1) at 600 mcg per dose. They applied one ml twice daily. The transdermal application was at 600 mcg per ml. The total application was 40 ml.

[4] = system: rabbit collagenase model of osteoarthritis; assay: Rabbit collagenase model of osteoarthritis, intra-articular administration; type: in vivo, New Zealand White Rabbit; conditions: 4 weekly intra-articular injections of 0.25 mg, 9 weeks post collagenase
Protocol: AOD9604 (SEQ ID NO: 1) was provided by Metabolic Pharmaceutical Pty Ltd.
Treatments groups: 32 rabbits were each given a 2 mg collagenase injection into their right knee joint, followed by a second injection 3 days later to induce osteoarthritis. After 4 weeks, the rabbits were divided into 4 groups of 8 for subsequent treatments.
Group 1 received 4 weekly injections of vehicle (disease control group).
Group 2 received 4 weekly injections of 6 mg of HA-hyuran-plus (HA positive control group).
Group 3 received 4 weekly injections of 0.25 mg of AOD9604 (AOD only group).
Group 4 received 4 weekly injections of both HA and AOD9604 (combination group).
Clinical observations were made by direct observation daily to assess lameness (as described in Kim et al., (2010) supra). At 9 weeks post initial collagenase injection the animals were euthanized.
Gross observation of the right and left knee joints was performed after dissection and scored for damage (as described in Kim et al., (2010) supra). Histological analysis of lateral and medial condyles from each joint was performed and scored.
A statistical analysis of the data was performed and the results are shown in FIGS. 13 (Group 1), 14 (Group 2), 15 (Group 3) and 16 (Group 4).

[5] = system: symptoms consistent with Clostridium tetani infection; design: species or system human; conditions: in vivo, sc
[6] = system: fibre disruption at the junction of supraspinatus tendon insertion; assay: Case study: shoulder tendon; type: in vivo, human; conditions: transdermal 600 mcg per dose twice daily, total 30 ml
Description: The subject was a professional footballer. The athlete incurred some fibre disruption at the junction of supraspinatus tendon insertion. The MRI indicated an area of 1.0 cm within the disruptive pathology. […] Most of the affected area was the muscular portion of the junction. […] The athlete had been restricted in both the range of motion they could employ for the injured site as well as the amount of weight bearing activity they could engage for the area. They had been finding it difficult to abduct the arm at the shoulder joint.
The subject undertook an intervention of AOD9604 (SEQ ID NO: 1) at 600 mcg per dose. They applied one ml twice daily. The transdermal application was at 600 mcg per ml. The total application was 30 ml.

[7] = system: contusion to the rectus femoris; assay: Case study: corked quad, hematoma; type: in vivo, human; conditions: transdermal 600 mcg per dose twice daily, total 20 ml
Description: The subject was a professional footballer. The athlete incurred a contusion to the rectus femoris adjacent to the central tendon. The MRI indicated an area of 2.0 cm area for the contusion. […] There was a minor degree of associated edema associated with the pathology. The MRI confirmed that there was fibre disruption but no true tear. The central tendon remained intact. The injury was an acute injury. The athlete identified discomfort on weight bearing movement and the mass was easily palpatable. Any hip flexion movement could induce discomfort and awareness of the injury. Although the muscle is not considered a dominant muscle in knee extension movement the affected area was painful and inducing discomfort with such work.
The subject undertook an intervention of AOD9604 (SEQ ID NO: 1) at 600 mcg per dose. They applied one ml twice daily. The transdermal application was at 600 mcg per ml. The total application was 20 ml.

C2C12 cells [8] = assay: C2C12 myotube quantification (Bodipy staining); type: cell-based; conditions: over 72 hours, FIG. 11
Protocol: For myotube quantification the cells were stained with Bodipy (Invitrogen, 1/1000 PBS) according to the manufacturer's directions. The number of myotubes that developed over 72 hours was determined and expressed as a percent of total cells in culture (n=3, 100 cells/culture).
(§3) The data was expressed as mean±SD. The data was expressed as mean±SD. Significance was determined using two way ANOVA followed by Tukey's post hoc test when multiple groups were being evaluated. T test was utilized if 2 groups were being compared. Significance was assigned at p values <0.05.

[9] = system: Chondrocytes isolated from articular cartilage; assay: Chondrocyte culture on collagen type II-coated filter, cartilage tissue formation; type: cell-based, calf; conditions: for toxicity to cells as determined by DNA content: 10 or 100 μg/ml, 2 weeks of treatment (3 weeks culture), FIG. 1
Protocol: Chondrocytes were isolated from articular cartilage obtained aseptically from calf metacarpal-carpal joints and seeded onto collagen type II-coated membrane inserts (Millipore™) (1.5×10^6 cells/12 mm diameter membrane). Chondrocytes were grown in Ham's F-12 supplemented with 5% fetal bovine serum (FBS) under standard culture conditions. After 5 days the serum was increased to 20%. Chondrocytes were then grown in the presence and absence of AOD9604 (SEQ ID NO: 1) (10 or 100 μg/ml) for 2 weeks (total culture time 3 weeks). Fresh AOD was added with each change of media.
as §1, with “and” for “and water content and dry weight measured. The tissue was then”, “nm).” for “nm.”
as §2

C2C12 cells [10] = assay: C2C12 cell proliferation (DNA content); type: cell-based; conditions: 10 and 100 μg/ml, 3 days, FIG. 12
Protocol: C2C12 were grown in monolayer culture in DMEM (high glucose) supplemented with 10% fetal bovine serum under standard cell culture conditions. The cells were passaged at 60-70% confluence. The effect of AOD9604 (SEQ ID NO: 1) on cell proliferation was determined by growing the cells (3000 cells/cm^2) in the absence or presence of AOD9604 (10 and 100 μg/ml) for 3 days. The DNA content was then quantified. The cells were digested by papain and DNA content determined using the Hoechst 33258 dye binding assay (Polysciences) and fluorometry (excitation 365 nm, emission 458 nm).
as §3

C2C12 cells [11] = assay: C2C12 differentiation into myoblasts (myogenin staining); type: cell-based
Protocol: C2C12 (2×10^3 cells/cm^2) were grown in DMEM and 10% FBS. Differentiation was induced by replacing growth media with differentiation media which consists of DMEM supplemented with 2% horse serum. The cells were grown in the absence or presence of AOD9604 (10 or 100 μg/ml). The cells were fixed in 4% paraformaldehyde and co-stained for myogenin (a muscle specific muscle marker (transcription factor) 1/250 Tris-Triton X buffer) and Bodipy (cytoplasmic stain, Invitrogen, 1/1000 PBS). The number of cells stained for myogenin were counted in 4 random fields (up to 100 cells/field) (n=4). The percent of cells that stained positively for myogenin was calculated.
as §3

C57Bl/6J (Ob/Ob) mouse = conditions: cited from earlier work

## YLRIVQCRSVEGSCGF (cysteine pairing not given here) [AOD9604]
IGF-1
  plasma level of IGF-1: did not elevate
[1]
  formation of osteoclasts: without an increase
  osteoblast formation: increased
[2]; 500 μg/ml, FIGS. 5-8
  effect on native cartilage: no effect
[2]; FIGS. 5 and 7
  proteoglycan content of native cartilage: does not affect
[2]; FIGS. 6 and 8
  collagen content of native cartilage: does not affect
[2]; up to 500 μg/ml, 2 weeks of treatment, FIG. 4, listed as AOD
  toxicity / DNA content of native cartilage: not toxic; also recorded: no effect
1.5 cm tear on soleus
  follow up MRI: full integrity had returned to the injury
  residual pain or discomfort: no residual pain or discomfort
  resolution of injury: resolved in two weeks
  return to weight bearing activities: returned to full weight bearing activities
[3]
  follow up MRI: full integrity had returned to the bicep femoris long head
  residual pain or discomfort: no residual pain or discomfort
  resolution of injury: resolved in three weeks
  return to weight bearing activities: returned to full weight bearing activities
[4]
  regeneration compared to control (histological analysis of condyles): has regenerative power compared to control
[5]
  pain: considerably reduced
  resolution of symptoms: fully resolved at around day eight
  return to activity: resumed full running and moderate weight lifting activity on day eight
[6]
  residual pain or discomfort: no residual pain or discomfort
  resolution of injury: resolved in three weeks
  return to weight bearing activities: returned to full weight bearing activities and rotation activity
  subsequent MRI: full integrity had returned to the junctional area
[7]
  pain or discomfort on resumed weight bearing: no immediate pain or discomfort
  resolution of injury: resolved in two weeks
  return to weight bearing activity: returned to full weight bearing activity
  subsequent MRI: return to full anatomical integrity
C2C12 cells [8]
  formation of myotubes: no affect
C2C12 cells [8]; listed as AOD
  formation of myotubes: does not enhance
[9]; 100 μg/ml, 3 weeks of culture, FIG. 2
  proteoglycan content of the tissue: increasing
[9]; 100 μg/ml, 3 weeks of culture, FIG. 3
  collagen content of the tissue: increasing
[9]
  toxicity to cells as determined by DNA content: not toxic
[9]; listed as AOD
  toxicity to cells as determined by DNA content: does not have a toxic effect on cells
C2C12 cells [10]
  cell proliferation: did not affect
C2C12 cells [10]; listed as AOD
  cell proliferation: does not enhance myotube Formation or alter cell proliferation
C2C12 cells [11]; 3 days (72 hours), doses as low as 10 μg/ml, FIG. 10
  differentiation of C2C12 cells into myoblasts: enhances
C2C12 cells [11]; 3 days (72 hours), doses as low as 10 μg/ml, FIG. 10, listed as AOD
  differentiation of C2C12 cells into myoblasts: induces differentiation
C2C12 cells [11]; after 24 hours of treatment, FIG. 9
  differentiation of C2C12 cells into myoblasts: induces differentiation

## hGH 177-191: synthetic peptide corresponding to amino acid residues 177-191 of human growth hormone sequence (LRIVQCRSVEGSCGF; UniProt P01241 203-217, looked up, fragment)
C57Bl/6J (Ob/Ob) mouse
  adipose tissue mass: reduce
  body weight gain: reduce
